Data reported in patent US4619942A, “Inhibition of Respiratory Syncytial virus-induced cell fusion by amidino compounds” (priority 1983, dated 1986).
“Also recorded” adds a separate entry of the source. Like-named read-outs stand apart in the source and are kept apart here.

How the values were obtained:
[1] = test system: RS virus; details: moi 1-2, control titers 1-5 × 10^7
[2] = test system: cell growth; details: cited from earlier work
[3] = test system: RS virus; test: RS virus cytopathology / syncytium formation in Hep-2 cells (Table 3); details: for Effect on RS virus cytopathology (syncytia) / Suppression of RS virus syncytia (in words): Hep-2; for Effect on RS virus cytopathology (syncytia): added 2 hour post infection
[4] = test system: A549
[5] = test system: CV-1
[6] = test system: BHK-21
[7] = target: plasminogen activator urokinase; details: cited from earlier work
[8] = test system: Hep-2 cells
[9] = target: pancreatic kallikrein; details: cited from earlier work
[10] = test system: RS virus; test: RS virus cytopathic effect in CV-1 cells; format: cell-based, A2 strain; details: 50 μM; 8 days post infection; over 50% of untreated monolayer destroyed
Description: (§1) This reduction of cytopathology was even more obvious in RS virus infected CV-1 cells examined at 8 days post infection. It was observed that in untreated infected cultures over 50% of the monolayer was destroyed during the multiple cycles of RS virus growth.

[11] = test system: P-3; test: P-3 yield in CV-1 cells maintained with compound 7; format: cell-based, Parainfluenza type 3; details: 50 μM for 6 days; challenged on day 6
[12] = test system: HSV-1; test: HSV-1 yield in CV-1 cells maintained with compound 7; format: cell-based, herpes simplex type 1; details: 50 μM for 6 days; challenged on day 6
[13] = test system: MP mutant of HSV-1; test: Fusion of CV-1 cells by MP mutant of HSV-1; format: cell-based, herpes simplex type 1
Description: A polykaryoctye-forming mutant (MP) of herpes simplex type 1 (HSV-1) was also employed.
as §1

[14] = test system: RS virus; test: Multiple cycle yields of RS virus (Table 5); format: cell-based, A2 strain; details: for Multiple cycle yield of RS virus, treated: 50 μM
Experimental: (§2) Virus yields were quantitated by calculating 50 percent end points according to the method of Reed and Muench (A simple method for estimating fifty percent end-points. Am. J. Hyg. b 27, 493-497 (1938)). Briefly, 0.05 ml of virus diluted in MEM plus 10% FCS was added to micro-titer plates. This was followed by the addition of 40,000-60,000 Hep-2 cells in a volume of 0.05 ml. Plates were incubated at 36° C. for 5-7 days. Six or eight wells were used for each dilution. Standard error analysis was done according to the method of Pizzi (Sampling variation of the fifty percent endpoint determined by the Reed-Muench (Behrens) method. Human Biol. 22, 151-180 (1950)).
(§3) For these experiments, Hep- 2 cells were infected with either RS virus or
(§4) P-3 virus at multiplicities of infection of 0.1, 0.01, or 0.001. Following
(§5) a 2 hour adsorption period, the cultures received medium with or without a
(§6) The monolayers were harvested after
(§7) multiple cycles of replication and the yields were determined in
(§8) inhibitor-free microtiter assays.

[15] = test system: P-3 virus; test: Multiple cycle yields of P-3 virus (Table 5); format: cell-based, Parainfluenza type 3; details: 50 μM
Experimental: as §2, §3, §4, §5, §6, §7, §8

[16] = test system: RS virus; test: RS yields after pretreatment of Hep-2 cells at high multiplicities of infection; format: cell-based, A2 strain
Description: RS virus. Even at high multiplicities of infection, pretreatment of Hep-2
reduction of RS yields. The results in Table 5 also reveal that the […]

[17] = test system: RS virus; format: cell-based, A2 strain

SMILES: N=C(N)c1ccccc1 [Compound 1, Benzamidine, reference compound]
- Single cycle yield of RS virus (RS virus titers) ([1]; 50 μM): 1.1 × 10^7 TCID50/ml
- Concentration reducing cell growth rates [2]: greater than 500 μM
- Effect on RS virus cytopathology (syncytia) ([3]; 50 μM): S

SMILES: N=C(N)c1ccc(OCCCCCCOc2ccccc2)cc1 [Compound 3, 1-(4-Amidinophenoxy-6-phenoxyhexane]
- Pattern of toxicity compared with Hep-2 cells [4]: identical pattern of toxicity
- Pattern of toxicity compared with Hep-2 cells [5]: identical pattern of toxicity
- Pattern of toxicity compared with Hep-2 cells [6]: identical pattern of toxicity
- Single cycle yield of RS virus (RS virus titers) ([1]; 10 μM): 3.5 × 10^7 TCID50/ml
- Effect on RS virus cytopathology (syncytia) ([3]; 10 μM): S

SMILES: N=C(N)c1ccc(OCCCCCCCCOc2ccccc2)cc1 [Compound 4, 1-(4-Amidinophenoxy)-8-phenoxyoctane]
- Single cycle yield of RS virus (RS virus titers) ([1]; 10 μM): 3.5 × 10^7 TCID50/ml
- Effect on RS virus cytopathology (syncytia) ([3]; 10 μM): S

SMILES: N=C(N)c1ccc(OCCC(O)COc2ccc(C(=N)N)cc2)cc1 (stereo not drawn) [Compound 5, 1,4-Di(4-amidinophenoxy)-2-butanol]
- Single cycle yield of RS virus (RS virus titers) ([1]; 10 μM): 0.5 × 10^7 TCID50/ml
- Single cycle yield of RS virus (RS virus titers) ([1]; 100 μM): 5.0 × 10^5 TCID50/ml
- Ki [7]: 3200 nM
- Inhibition of RS virus / RS virus-induced cell fusion (general statement) [3]: inhibitively effective against RS virus
- Effect on RS virus cytopathology (syncytia) ([3]; 0.1 μM): S
- Effect on RS virus cytopathology (syncytia) ([3]; 1.0 μM): S
- Suppression of RS virus syncytia (in words) [3]: suppressed the appearance of the characteristic syncytia

SMILES: N=C(N)c1ccc(OCc2cccc(COc3ccc(C(=N)N)cc3I)c2)c(I)c1 [Compound 6, α,α'-Bis(4-amidino-2-iodophenoxy)-m-xylene]
- Cytotoxicity relative to other compounds (in words) [8]: as toxic as pentamidine
- Pattern of toxicity compared with Hep-2 cells [4]: identical pattern of toxicity
- Pattern of toxicity compared with Hep-2 cells [5]: identical pattern of toxicity
- Pattern of toxicity compared with Hep-2 cells [6]: identical pattern of toxicity
- Single cycle yield of RS virus (RS virus titers) ([1]; 10 μM): 6.3 × 10^6 TCID50/ml
- Ki [9]: 31 nM
- Effect on RS virus cytopathology (syncytia) ([3]; 0.1 μM): S
- Effect on RS virus cytopathology (syncytia) ([3]; 1.0 μM): S

SMILES: N=C(N)c1ccc2nc(Cc3nc4ccc(C(=N)N)cc4[nH]3)[nH]c2c1 [Compound 7, Bis(5-amidino-2-benzimidazolyl)methane]
- RS virus cytopathic effect in CV-1 cells [10]: preservation of the monolayer with individual foci of infection appearing to be inhibited in their spread to uninfected areas of the culture
- P-3 yield after prolonged exposure of CV-1 cells [11]: normal yields
- HSV-1 yield after prolonged exposure of CV-1 cells [12]: normal yields
- Effect on ability of MP mutant of HSV-1 to fuse cells [13]: no effect
- Multiple cycle yield of RS virus, treated ([14]; moi 0.001, harvested 120 hr post infection, control 2.8 × 10^6): 1.1 × 10^4 TCID50 /ml
- Multiple cycle yield of RS virus, treated ([14]; moi 0.01, harvested 120 hr post infection, control 3.2 × 10^7): 1.2 × 10^5 TCID50 /ml
- Multiple cycle yield of RS virus, treated ([14]; moi 0.1, harvested 72 hr post infection, control 5.0 × 10^7): 6.3 × 10^6 TCID50 /ml
- Effect on multiple cycle yields / spreading of RS virus (in words) ([14]; compound 7: 50 μM, low moi): considerably less; also recorded: greatly reduced the spreading
- Effect on yield of P-3 virus (in words) ([15]; low moi): slight, but consistent decrease
- Multiple cycle yield of P-3 virus, treated ([15]; moi 0.001, harvested 72 hr post infection, control 2.0 × 10^8): 6.3 × 10^7 TCID50 /ml
- Multiple cycle yield of P-3 virus, treated ([15]; moi 0.01, harvested 48 hr post infection, control 7.9 × 10^7): 4.6 × 10^7 TCID50 /ml
- Multiple cycle yield of P-3 virus, treated ([15]; moi 0.1, harvested 48 hr post infection, control 3.5 × 10^8): 7.9 × 10^7 TCID50 /ml
- log reduction at 50 µM [16]: 1 to 2
- Behavior of RS virus replicated in presence of inhibitor versus control ([17]; 50 μM, RSI series vs C series): did not behave differently from the control
- Effect on RS virus penetration (in words) ([17]; compound 7: 50 μM): penetration was delayed to a similar degree
- RS virus titer, TCID50 (Log 10) ([17]; titer #1: RSI + I + A, 50 μM): 4.11 TCID50 (Log 10)
- RS virus titer, TCID50 (Log 10) ([17]; titer #2: RSI + I + A (so in the source), 50 μM): 5.97 TCID50 (Log 10)
- RS virus titer, TCID50 (Log 10) ([17]; titer #3: RSI - I + A, virus grown with 50 μM, none during adsorption): 5.50 TCID50 (Log 10)
- RS virus titer, TCID50 (Log 10) ([17]; titer #4: RSI - I + A (so in the source), virus grown with 50 μM, none during adsorption): 5.97 TCID50 (Log 10)
- RS virus titer, TCID50 (Log 10) ([17]; titer #5: C + I + A, untreated control #7 (C - I + A) 6.73): 5.59 TCID50 (Log 10)
- RS virus titer, TCID50 (Log 10) ([17]; titer #6: C + I - A, untreated control #8 (C - I + A as printed) 6.97): 6.92 TCID50 (Log 10)
- Pattern of toxicity compared with Hep-2 cells [4]: identical pattern of toxicity
- Pattern of toxicity compared with Hep-2 cells [5]: identical pattern of toxicity
- Pattern of toxicity compared with Hep-2 cells [6]: identical pattern of toxicity
- Single cycle yield of RS virus (RS virus titers) ([1]; 50 μM): 6.3 × 10^7 TCID50/ml
- Single cycle yield of RS virus (RS virus titers) ([1]; 500 μM): 2.0 × 10^7 TCID50/ml
- Inhibition of RS virus / RS virus-induced cell fusion (general statement) [3]: inhibitively effective against RS virus
- Effect on RS virus cytopathology (syncytia) ([3]; 0.1 μM): S
- Fusion of RS virus-infected cells (morphology) ([3]; 1.0 μM, moi 1-2, 40 hrs post infection): abolition of fusion
- minimal effective concentration ([3]; HEp-2, read-out: Lowest concentration inhibiting syncytium formation): 1 µM

SMILES: N=C(N)c1ccc2nc(CCc3nc4ccc(C(=N)N)cc4[nH]3)[nH]c2c1 [Compound 8, 1,2-Bis(5-amidino-2-benzimidazolyl)ethane]
- Single cycle yield of RS virus (RS virus titers) ([1]; 10 μM): 6.3 × 10^7 TCID50/ml
- Single cycle yield of RS virus (RS virus titers) ([1]; 100 μM): 7.9 × 10^7 TCID50/ml
- Inhibition of RS virus / RS virus-induced cell fusion (general statement) [3]: inhibitively effective against RS virus
- Effect on RS virus cytopathology (syncytia) ([3]; 0.1 μM): S
- Effect on RS virus cytopathology (syncytia) ([3]; 1.0 μM): S
- Suppression of RS virus syncytia (in words) [3]: lower activity

SMILES: N=C(N)c1ccc2[nH]ccc2c1 [Compound 9, 5-Amidinoindole]
- Single cycle yield of RS virus (RS virus titers) ([1]; 10 μM): 2.9 × 10^7 TCID50/ml
- Single cycle yield of RS virus (RS virus titers) ([1]; 100 μM): 6.3 × 10^7 TCID50/ml
- Inhibition of RS virus / RS virus-induced cell fusion (general statement) [3]: inhibitively effective against RS virus
- Effect on RS virus cytopathology (syncytia) ([3]; 0.1 μM): S
- Effect on RS virus cytopathology (syncytia) ([3]; 1.0 μM): S

SMILES: N=C(N)c1ccc2occc2c1 [Compound 10, 5-Amidinobenzofuran]
- Single cycle yield of RS virus (RS virus titers) ([1]; 10 μM): 1.1 × 10^7 TCID50/ml
- Single cycle yield of RS virus (RS virus titers) ([1]; 100 μM): 6.3 × 10^7 TCID50/ml
- Effect on RS virus cytopathology (syncytia) ([3]; 10 μM): S
- Effect on RS virus cytopathology (syncytia) ([3]; 100 μM): S

SMILES: N=C(N)c1ccc2nc[nH]c2c1 [Compound 11, 5-Amidinobenzimidazole]
- Cytotoxicity relative to other compounds (in words) [8]: possessed the same or even less toxic activity than benzamidine
- Single cycle yield of RS virus (RS virus titers) ([1]; 100 μM): 8.7 × 10^7 TCID50/ml
- Inhibition of RS virus / RS virus-induced cell fusion (general statement) [3]: inhibitively effective against RS virus
- Effect on RS virus cytopathology (syncytia) ([3]; 1.0 μM): S
- Effect on RS virus cytopathology (syncytia) ([3]; 10 μM): S
- Suppression of RS virus syncytia (in words) [3]: suppressed the appearance of the characteristic syncytia

SMILES: Cn1ccc2cc(C(=N)N)ccc21 [Compound 12, 5-Amidino-1-methylindole]
- Cytotoxicity relative to other compounds (in words) [8]: intermediate in their cytotoxicity
- Inhibition of RS virus / RS virus-induced cell fusion (general statement) [3]: inhibitively effective against RS virus
- Suppression of RS virus syncytia (in words) [3]: suppressed the appearance of the characteristic syncytia

SMILES: N=C(N)c1ccc(Cn2ccc3cc(C(=N)N)ccc32)cc1 [Compound 13, 5-Amidino-1-(4-amidinobenzyl)indole]
- Cytotoxicity relative to other compounds (in words) [8]: intermediate in their cytotoxicity
- Inhibition of RS virus / RS virus-induced cell fusion (general statement) [3]: inhibitively effective against RS virus
- Effect on RS virus cytopathology (syncytia) ([3]; 0.1 μM): S
- Effect on RS virus cytopathology (syncytia) ([3]; 1.0 μM): S
- Suppression of RS virus syncytia (in words) [3]: suppressed the appearance of the characteristic syncytia
